Data from a melting point compilation (Tetko et al.; mined from patent text by program, amines drawn as free bases though some values may be those of a salt).

| melting point [°C] | SMILES |
| --- | --- |
| 177 to 179 | Nc1nc2ccccc2c2c1nc(-c1ccccc1)n2OCc1ccccc1 |
| 144 to 145 | C=C(OCC)c1nc(-c2ccco2)c2ncn(Cc3ccc(OC)cc3)c2n1 |
| 124 to 126 | N#CC1=Cc2cc(Cl)ccc2OC1 |
| 168 to 170 | CCCc1c(SCCCOc2ccc3c(=O)cc(C(=O)OCC)oc3c2CCC)ccc2c(=O)cc(C(=O)OCC)[nH]c12 |
| 135 to 136 | CSc1cc(C(C)(C)C)n[nH]1 |
| 107 to 109 | CNC(=O)CC1CN=C(c2cc3cc(Oc4ccc(S(C)(=O)=O)nc4)cc(OC(C)COC)c3[nH]2)S1 (centres undefined) |
| 164 to 166 | CC(C)(C)OC(=O)NC1CCCCCC=CC2CC2(C(=O)NS(=O)(=O)C2CC2)NC(=O)C2CC(OC(=O)c3ccccn3)CN2C1=O (centres undefined) |
| 254 to 256 | CCCn1c(=O)c2[nH]c(/C=C/c3cc(OC)c(OC)cc3OC)nc2n(CCC)c1=O |
| 143 to 146 | CCCCCCCCCCCCC(=O)Nc1ccn(C2OC(CO)C(O)C2O)c(=O)n1 (centres undefined) |
| 83 to 89 | CC(C)(C)OC(=O)C(CC(O)(C(F)(F)F)C(F)(F)F)NC(=O)OCc1ccccc1 (centres undefined) |
| 140 to 142 | COc1ccc(-c2ccc(CC(=O)O)cc2F)cc1 |
| 138 to 141 | CCCCc1ccc(-n2c(-c3ccc(SC)cc3)nc(SC)c(C#N)c2=O)cc1 |
| 120 to 124 | CC(C)(O)CCn1c2ccccc2c2cc(NC(=O)c3ccccc3Cl)ccc21 |
| 205 to 207 | COc1cc(F)ccc1-c1ccc(O)c(C(=O)O)c1 |
| 146 to 149 | CC(Oc1ccc(Cl)c(Cl)c1)c1ccnc2ncnn12 (centres undefined) |
| 123 to 124 | COc1ccc(C2Sc3c(ccc4ccccc34)N(CCCN(C)C)C(=O)C2O)cc1 (centres undefined) |
| 207 to 210 | CN(Cc1cc2cc(Cl)ccc2o1)C1CCN(c2ccc(OC[C@@]3(C)Cn4cc([N+](=O)[O-])nc4O3)cc2)CC1 |
| 136 to 140 | Cc1cccc(-c2n[nH]cc2-c2ccc(F)c(-c3c[nH]c(CC(C)(C)O)n3)c2)n1 |
| 139 to 143 | Cc1cc(C(=O)CCc2sc(-c3ccc(C(F)(F)F)cc3)cc2C(C)C)ccc1OCC(=O)O |
| 40 to 41 | CCCc1c(C#N)c(C(F)F)nc(C(F)(F)F)c1C(=O)OCC |
| 153 to 168 | COc1cc(F)c(CN(C=O)CCc2ccc(O)cc2)cc1O |
| 129 to 133 | CCCCCC(C)C(C)c1cc(O)c(CN2CCN(C)CC2)c(O)c1 (centres undefined) |
| 190 to 195 | CCNC1(c2ccccc2Cl)C(=O)N(Cc2ccc(C(=O)NC(C)(C)C)cc2)c2ccc(Cl)cc21 (centres undefined) |

| melting point [°C] | SMILES |
| --- | --- |
| 154 to 155 | CCOC(=O)CCCNc1ccc2oc(-c3ccc4ccc(Cl)cc4n3)cc2c1 |
| 134 to 136 | COCc1nc(N)nc(SC)n1 |
| 163 to 165 | COc1ccc2c(c1)CCC(CN1CCC(O)(c3ccccc3)CC1)C2=O (centres undefined) |
| 189 | O=C(O)Cn1c(=O)c2cc(Cl)ccc2n(Cc2ccc(Br)cc2F)c1=O |
| 146 | COC(=O)c1ccccc1S(=O)(=O)NC(=O)n1nc(Cl)n(N(C)C)c1=O |
| 178 to 179 | O=C1c2cccnc2N(c2ccccc2)C(=O)C12CCCC2 |
| 98 to 99 | CC(=O)c1ccccc1N(C)S(C)(=O)=O |
| 198 to 200 | O=C(Nc1cc2ncc(CN3CCCC3)cc2cc1F)c1ccc(-c2ccc(F)cc2)cc1 |
| 95.5 to 96.5 | COCC1CN(c2ccc3ccc(OC)cc3c2)C(=O)O1 (centres undefined) |
| 123 to 124 | CN1CCc2c(c3ccccc3n2CCC(=O)NN)C1 |
| 143 | CCOc1cc(Cn2[nH]c(N)cc2=O)ccc1Cl |
| 249 | COc1cc(OC)c(-c2nc(NC(=O)c3cc4ccccc4[nH]3)sc2C)cc1Cl |
| 112 to 117 | OC1(c2cccn2Cc2ccccc2F)CCN(Cc2ccccc2)CC1 |
| 107 to 109 | CS(=O)(=O)N1CCC2(CC1)OCCO2 |
| 140 to 142 | CCOC(=O)N1CCN(c2ccc(C3=NNC(=O)CC3C)cc2[N+](=O)[O-])CC1 (centres undefined) |
| 67 to 68 | CCOC(=O)CC(=O)c1cc(OC)c(OC)c([N+](=O)[O-])c1 |
| 128 | O=[N+]([O-])c1c(Br)nn(Cc2ccccc2)c1Br |
| 152 to 153 | COc1cccc(CC(=O)O)c1OCCCc1cn(-c2ccc(Br)cn2)nc1C(C)C |
| 95 to 97 | COC(=O)[C@H](CSC)Nc1ncccc1[N+](=O)[O-] |
| 135 to 137 | CC(C)(C)c1ccc(C(O)CCCN2CCC(C3(O)c4ccccc4COc4ccccc43)CC2)cc1 (centres undefined) |
| 187 to 189 | CCc1cccc2c3c([nH]c12)C(CC)(CC(=O)OC)OCC3=O (centres undefined) |
| 120 to 122 | CC(C)(C)OC(=O)COC1=CC(=O)c2ccccc2C1=O |
| 261 to 262 | Cc1cnc2c(c1)cc1c3c(cc([N+](=O)[O-])cc32)C(=O)OC1=O |

| melting point [°C] | SMILES |
| --- | --- |
| 140 to 142 | NC(=O)CN1C(=O)C[C@@H]2CCCCC[C@@H]21 (relative stereo) |
| 136 to 137 | CCC(CC)(CC(=O)Nc1cccc(/C=C/c2cccc(CCCCCCc3ccc(OCCC(C)C)cc3)n2)c1)C(=O)O |
| 69 to 70 | CCCCOc1c(C#N)c(C#N)c(OCCCC)c2ccccc12 |
| 254 | CC(C)NC(=O)N1CCc2[nH]cnc2C1C1CCCCC1 (centres undefined) |
| 140 to 142 | C=CCN(CC=C)c1nc(NC(=O)Cc2cccs2)n2oc(=O)nc2n1 |
| 167 to 173 | CCc1c(-c2ccc(O)cc2)c2cc(C(C)=O)c3ccc(O)c1n32 |
| 105 to 107 | COc1ccc(C(=O)C(C(=O)Nc2cc(N)ccc2Cl)N2C(=O)c3ccccc3C2=O)cc1 (centres undefined) |
| 166 | N=C1SCCN1c1ccc([N+](=O)[O-])cc1 |
| 139 to 140 | COc1ccc2c(c1)CCc1nn(-c3ccccn3)c(O)c1-2 |
| 204 | COc1cc(N(CC(N)=O)S(=O)(=O)c2ccc(OC)c(OC)c2)c(C(O)c2c(F)cccc2F)cc1C (centres undefined) |
| 247 to 249 | O=C(O)c1ccc(-c2ccc3c(c2)CCN(CCN2CCCC2)C3=O)cc1 |
| 184 to 185 | CCOC(=O)c1c(CCc2c[nH]nn2)nc2sc3c(c2c1-c1ccc(OC)c(OC)c1)CCN(C(=O)c1ccccc1)C3 |
| 136 to 137 | COc1ccc(CSc2nnc(-c3ccc4[nH]ncc4c3)o2)cc1C(F)(F)F |
| 151 to 153 | O=S(=O)(Nc1ccc2c(OCc3ccc(-c4ccc(Cl)cc4)cc3F)cccc2c1)C(F)(F)F |
| 60 to 62 | CC(C)(C)c1cn2cccc(C=O)c2n1 |
| 225 to 227 | COc1nc(C)c(N2CCCn3c2nc2c(Cl)ccc(C(OCC(F)(F)F)C4CC4)c23)c(C)n1 (centres undefined) |
| 173 to 174 | COc1cc(O)c2c(c1)C1OC1CC(O)C(O)C(=O)C=CCC(C)OC2=O (centres undefined) |
| 136 to 137 | CCOC(=O)Cc1ccc(-c2nc(COc3ccc(COc4nn(-c5ccccc5)cc4/C=C\c4csc(CC)n4)cc3OC)c(C)o2)cc1 |
| 103 to 104 | O=C(NCCO)c1cccc(-c2cccc3nc(Oc4cccc(C(F)(F)F)c4)sc23)c1 |
| 146 | O=[N+]([O-])c1c(Cl)cccc1-c1nn(CO)cc1Cl |
| 183 to 184 | COC(=O)c1ccc(N2C(=O)CCC2(CBr)COC(=O)c2ccccc2)c([N+](=O)[O-])c1 (centres undefined) |
| 71 to 74 | O=C(O)[C@@H]1CCCC[C@H]1C(=O)CCS (relative stereo) |
| 162 to 165 | CN(C)CCN(C1CCS(=O)(=O)C1)S(=O)(=O)c1ccc(Nc2nccc(Nc3ccc(F)cc3)n2)cc1 (centres undefined) |

| melting point [°C] | SMILES |
| --- | --- |
| 232 to 234 | Nc1nc2cc(Cl)c(Cl)cc2nc1Br |
| 132 to 134 | COc1ccc(C2SCc3c(sc(N)c3C(=O)c3cccc4ccccc34)S2)cc1 (centres undefined) |
| 105 to 107 | CC(Oc1ccc(Oc2ccc(C(F)(F)F)cc2)cc1)C(=O)N1CCCO1 (centres undefined) |
| 175 to 177 | COC(=O)c1ncn(Cc2ccc([N+](=O)[O-])cc2)n1 |
| > 250 | CS(=O)(=O)Nc1cc2occ(C(N)=O)c(=O)c2cc1Oc1ccccc1 |
| 118 to 120 | NC(=O)C(c1cccc(F)c1)N(C(=O)c1cccn2ccnc12)C(F)(F)F (centres undefined) |
| 192 | CN(C1CCN(CCCC(F)(F)F)CC1)S(=O)(=O)c1ccc(Nc2nccc(Nc3ccc(F)c(F)c3)n2)cc1 |
| < 20 | COC(=O)C(C)(C)Oc1ccc(-c2ccc(CCNC(=O)c3cc(Cl)ccc3OC)cc2)cc1 |
| 236 to 240 | Sc1nnc(-c2cc3c(Oc4ccc(Cl)cc4)cncc3s2)o1 |
| 181 to 182 | COc1ccc(-c2c(C(C)=O)c(CBr)nc3cc(OC)c(OC)cc23)cc1OC |
| 78 to 80 | O=C1NC(=O)C(Cc2ccc(OC[C@@H]3CCCN3c3ccccn3)cc2)S1 (some centres undefined) |
| 206 to 208 | COc1ccc2nc(NC(=O)C(CC3CCCC3)c3ccc(S(=O)(=O)N(C)Cc4ccccc4)cc3)sc2n1 (centres undefined) |
| 120 | Clc1cnc(Oc2cccc(Oc3ncc(Cl)cn3)c2)nc1 |
| 190 to 192 | CSc1[nH]cc(Cc2ccccc2)c1[N+](=O)[O-] |
| 275 to 276 | Oc1c(C(=S)NCc2ccc(Cl)cc2)cnc2ccc(I)cc12 |
| 93 to 96 | CC(C)NC(=O)N1C2=NC(C)(C)N(C)C(=O)N2c2ccccc21 |
| 197 to 199 | COC(=O)CNC(=O)c1ccc(C(=O)NS(=O)(=O)c2ccc(CCNC(=O)C(C)C)cc2)cn1 |
| 145 | O=C(NN1CCCCC1)c1nn(-c2ccc(Cl)cc2Cl)c2c1CCc1sc(Br)cc1-2 |
| 196 to 199 | Nn1cc(F)c(=O)[nH]c1=O |
| 204 to 206 | CCCOCc1cc2cc(-c3ccc4c(c3)C=C(C(=O)Nc3ccc(CN(C)C5CCOCC5)cc3)CCS4(=O)=O)ccc2o1 |
| 230 to 231 | O=C(O)c1ccc2oc(=O)n(Cc3ccc4[nH]c(=O)[nH]c4c3)c2c1 |
| 60 to 69 | CC(=O)OCC1CC(=O)NN=C1c1ccc(N2CCOCC2)c(C#N)c1 (centres undefined) |
| 68 to 69 | O=C(Nc1cccc(C(F)(F)F)c1)C1C(=O)C2CCC(C2)C1=O (centres undefined) |

| SMILES | melting point [°C] |
| --- | --- |
| OCc1cn2c(n1)CN=C(c1ccccn1)c1cc(Br)ccc1-2 | 176 to 178 |
| N=C(NCCNC(c1ccccc1)(c1ccccc1)c1ccccc1)N[N+](=O)[O-] | 217 to 219 |
